The values that follow come from patent publication US20090312349A1, “ANTI-INFLAMMATORY MEDICAMENTS” (priority 2004, published 2009).

The assay addresses T1, phospho p-38 alpha kinase (Homo sapiens, UniProt Q16539).
T1 construct: purchased Panvera
Description: P-38 alpha kinase assay (spectrophotometric, pyruvate kinase/lactate dehydrogenase coupled). The format is biochemical. Particulars: Table 5; for IC50: assay not named, read-out: uM. The protocol: In this assay, the oxidation of NADH was continuously measured spectrophometrically. […] The reaction was initiated by adding ATP. The absorption at 340 nm was monitored continuously for up to 4 hours at 30° C. on Polarstar Optima plate reader (BMG). The kinase activity (reaction rate) was calculated from the slope at the time frame from 1.5 h to 2 h.
For inhibition determinations, test compounds were incubated with the reaction mixture for ˜5 min before adding ATP to start the reaction. […] IC50 values were calculated from a series of % inhibition values determined at a range of concentrations of each inhibitor using Prism to process the data and fit inhibition curves. Generally, the rates obtained at the time frame of 1.5 h to 2 h were used for these calculations.

T1 sequence (Q16539 whole entry): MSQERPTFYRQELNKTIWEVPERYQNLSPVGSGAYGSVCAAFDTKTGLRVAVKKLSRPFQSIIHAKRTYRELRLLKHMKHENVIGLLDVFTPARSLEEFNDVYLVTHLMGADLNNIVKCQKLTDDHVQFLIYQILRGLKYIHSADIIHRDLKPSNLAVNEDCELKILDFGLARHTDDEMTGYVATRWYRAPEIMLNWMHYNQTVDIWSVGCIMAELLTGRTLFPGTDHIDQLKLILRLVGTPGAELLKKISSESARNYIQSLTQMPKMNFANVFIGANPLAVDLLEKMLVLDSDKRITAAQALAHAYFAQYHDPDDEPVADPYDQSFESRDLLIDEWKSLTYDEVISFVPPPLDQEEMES

`CC(C)(C)c1cc(NC(=O)Nc2ccc(Cl)cc2)n(-c2cccc(CN3C(=O)NC(=O)C3=O)c2)n1` [Example 378, 1-{3-t-butyl-2-{3-[(2,4,5-trioxoimidazolidin-1-yl)methyl]phenyl}-1H-pyrazol-3-yl}-3-(4-chlorophenyl)urea]: the IC50 is 0.4 µM. The same measure, in the same setting: with `C#CC(O)c1ccc(-n2nc(C(C)(C)C)cc2NC(=O)Nc2cccc3ccccc23)cc1` (centres unmarked) [Example 361, 1-{3-t-butyl-1-[4-(1-hydroxyprop-2-ynyl)phenyl]-1H-pyrazol-5-yl}-3-(naphthalen-1-yl)urea] the figure was 0.87 µM; with `CC(O)c1ccc(-n2nc(C(C)(C)C)cc2NC(=O)Nc2cccc3ccccc23)cc1` (centres unmarked) [Example 360, 1-{3-t-butyl 1-[4-(1-hydroxyethyl)phenyl]-1H-pyrazol-5-yl}-3-(naphthalen-1-yl)urea], 0.39 µM. On the same count and under the same terms, the value for `CC(C)c1cc(NC(=O)Nc2cccc3ccccc23)n(-c2ccc(C(O)C(F)(F)F)cc2)n1` (centres unmarked) [Example 411, 1-(1-(4-(2,2,2-trifluoro-1-hydroxyethyl)phenyl)-3-isopropyl-1H-pyrazol-5-yl)-3-(naphthalen-1-yl)urea] was 0.008 µM; that for `CCOC(=O)C(C)Cc1cccc(-n2nc(C(C)(C)C)cc2NC(=O)Nc2cccc(Cl)c2Cl)c1` (centres unmarked) [Example 322, ethyl 3-(3-{3-t-butyl-5-[3-(2,3-dichlorophenyl)ureido]-1H-pyrazol-1-yl}phenyl)-2-methylpropanoate] was 2.02 µM. On to `Cc1cc(NC(=O)Nc2cccc3ccccc23)n(-c2ccc(C(O)C(F)(F)F)cc2)n1` (centres unmarked) [Example 348, 1-{3-methyl-1-[4-(2,2,2-trifluoro-1-hydroxyethyl)phenyl]-1H-pyrazol-5-yl}-3-(naphthalen-1-yl)urea], for which the “% @ concentration, uM” value is, setting by setting: (@ 0.1 uM) 17%; (@ 1 uM) 47%.

Take `CCOC(=O)Cc1ccc(-n2nc(C(C)(C)C)cc2NC(=O)Nc2cccc(Cl)c2Cl)cc1` [Example 318]: the IC50 stood at 0.67 µM. With `CCOC(=O)c1cccc(-n2nc(-c3ccccc3)cc2NC(=O)Nc2cccc3ccccc23)c1` [Example 328, ethyl 3-[5-(3-naphthalen-1-yl-ureido)-3-phenyl-pyrazol-1-yl]benzoate], the “% @ concentration, uM” value (@ 10 uM) turned out to be 68% @ 10. On to `CC(C)(C)c1cc(NC(=O)Nc2ccc(Cl)cc2)n(-c2cccc(CC(=O)O)c2)n1` [Example 399, 2-(3-{3-t-butyl-5-[3-(4-chlorophenyl)ureido]-1H-pyrazol-1-yl-}phenyl)acetic acid], for which the “% @ concentration, uM” value (@ 0.1 uM) was 21% and the “% @ concentration, uM” value (@ 1 uM) is listed as 74%. For `CC(C)(O)c1cccc(-n2nc(-c3ccccc3)cc2NC(=O)Nc2cccc3ccccc23)c1` [Example 329, 1-{1-[3-(2-hydroxypropan-2-yl)phenyl]-3-phenyl-1H-pyrazol-5-yl}-3-(naphthalen-1-yl)urea], the IC50 amounted to 0.25 µM.

With `CC(C)(C)c1cc(NC(=O)Nc2cccc(Cl)c2Cl)n(-c2ccc(CO)cc2)n1` [Example 363, 1-{3-t-butyl-1-[(hydroxymethyl)phenyl]-1H-pyrazol-5-yl}-3-(2,3-dichloro-phenyl)urea], the IC50 was 0.19 µM. On the same count and under the same terms, with `CN1CCN(C(=O)Cc2ccc(-n3nc(-c4ccccc4)cc3NC(=O)Nc3cccc(Cl)c3Cl)cc2)CC1` [Example 475, 1-(2,3-dichlorophenyl)-3-(1-(4-(2-(4-methylpiperazin-1-yl)-2-oxoethyl)phenyl)-3-phenyl-1H-pyrazol-5-yl)urea] the figure was 0.01 µM.

As for `CC(C)(C)c1cc(NC(=O)Nc2cccc3ccccc23)n(-c2ccc(O)cc2)n1` [Example 415, 1-(3-t-butyl-1-(4-hydroxyphenyl)-1H-pyrazol-5-yl)-3-(naphthalen-1-yl)urea], the “% @ concentration, uM” value was 28% (@ 0.1 uM) and 69% (@ 1 uM). For `COC(=O)COc1ccc(-n2nc(C(C)(C)C)cc2NC(=O)Nc2cccc3ccccc23)cc1` [Example 416, 1-(3-t-butyl-1-(4-(carbomethoxymethyl)oxyphenyl)-1H-pyrazol-5-yl)-3-(naphthalen-1-yl)urea] the same measures were 67% and 83%. Taken in the same sequence, the figures for `CC(C)c1cc(NC(=O)Nc2cccc3ccccc23)n(-c2cccc(C=O)c2)n1` [Example 350, 1-[1-(3-formylphenyl)-3-isopropyl-1H-pyrazol-5-yl]-3-(naphthalen-1-yl)urea] were 39% and 64%. `CCOC(=O)C(C)Cc1ccc(-n2nc(C(C)(C)C)cc2NC(=O)Nc2cccc3ccccc23)cc1` (centres unmarked) [Example 324, ethyl 3-(4-{3-t-butyl-5-[3-(naphthalen-1-yl)ureido]-1H-pyrazol-1-yl}phenyl)-2-methylpropanoate]: under “@ 10 uM”, the “% @ concentration, uM” value came out at 40% @ 10. On to `CC(C)(C)c1cc(NC(=O)Nc2ccc(Cl)cc2)n(-c2cccc(Cn3c(=O)[nH]n(-c4ccccc4)c3=O)c2)n1` [Example 392, 1-(3-t-butyl-1-{3-[(3,5-dioxo-1-phenyl-1,2,4-triazolidin-4-yl)methyl]phenyl}-1H-pyrazol-5-yl)-3-(4-chlorophenyl)urea], for which the “% @ concentration, uM” value by setting is: (@ 0.1 uM) 75%; (@ 1 uM) 86%. Regarding `CCOC(=O)c1cccc(-n2nc(C)cc2NC(=O)Nc2cccc(Cl)c2Cl)c1` [Example 342, ethyl 3-{5-[3-(2,3-dichlorophenyl)ureido]-3-methyl-1H-pyrazol-1-yl}benzoate], the IC50 amounted to 1 µM.

Consider `CNC(=O)Cc1cccc(-n2nc(C(C)(C)C)cc2NC(=O)Nc2cccc(Cl)c2Cl)c1` [Example 310], for which the IC50 was determined as 0.13 µM. With `CC(C)(C)c1cc(NC(=O)Nc2cccc3ccccc23)n(-c2cccc(CN)c2)n1` [Example 307, 1-(3-t-butyl-1-(3-(aminomethyl)phenyl)-1H-pyrazol-5-yl)-3-(naphthalen-1-yl)urea], the IC50 stood at 0.049 µM.

For the molecule `CC(C)(C)c1cc(NC(=O)Nc2cccc(Cl)c2Cl)n(-c2cccc(C(=O)O)c2)n1` [Example 374, 3-{3-t-butyl-5-[3-(2,3-dichlorophenyl)ureido]-1H-pyrazol-1-yl}benzoic acid], the IC50 was 0.037 µM. On the same count and under the same terms, the value for `CCOC(=O)c1cccc(-n2nc(C(C)(C)C)cc2NC(=O)Nc2ccc(F)cc2)c1` [Example 393, ethyl 3-{3-t-butyl-5-[3-(4-fluorophenyl)ureido)-1H-pyrazol-1-yl}benzoate] was 0.4 µM.

Regarding `COc1ccc(-n2nc(C(C)(C)C)cc2NC(=O)Nc2cccc(F)c2F)cc1` [Example 312, 1-[3-t-butyl-1-(4-methoxyphenyl)-1H-pyrazol-5-yl]-3-(2,3-difluorophenyl)urea], the IC50 came out at 0.349 µM. Consider `CC(C)(C)c1cc(NC(=O)Nc2ccc(Cl)cc2)n(-c2ccc(OCc3ccccc3)cc2)n1` [Example 418, 1-(3-t-butyl-1-(4-(benzyloxy)phenyl)-1H-pyrazol-5-yl)-3-(4-chlorophenyl)urea], for which the IC50 amounted to 0.075 µM. The same measure, in the same setting: the value for `CN1CCN(C(=O)NCc2cccc(-n3nc(C(C)(C)C)cc3NC(=O)Nc3cccc4ccccc34)c2)CC1` [Example 389, 1-{3-t-butyl-1-(3-[(1-methylpiperazine-4-carboxamido)methyl]phenyl}-1H-pyrazol-5-yl)-3-(naphthalen 1-yl)urea] was 0.09 µM; that for `CC(C)c1cc(NC(=O)Nc2ccc(Cl)cc2)n(-c2cccc(CCC(=O)O)c2)n1` [Example 429, 3-(3-(5-(3-(4-chlorophenyl)ureido)-3-isopropyl-1H-pyrazol-1-yl)phenyl)propanoic acid] was 1.07 µM. With `CCOC(=O)C(C)Cc1ccc(-n2nc(C(C)(C)C)cc2NC(=O)Nc2ccc(Cl)cc2)cc1` (centres unmarked) [Example 326, ethyl 3-(4-{3-t-butyl-5-[3-(4-chlorophenyl)ureido]-1H-pyrazol-1-yl}phenyl)-2-methylpropanoate], the “% @ concentration, uM” value (@ 10 uM) is listed as 41% @ 10.

Regarding `CCOC(=O)CCc1cccc(-n2nc(C(F)(F)F)cc2NC(=O)Nc2ccc(Cl)cc2)c1` [Example 426, 3-{3-(5-[3-(4-chloro-phenyl)-ureido]-3-trifluoromethyl-pyrazol-1-yl}-phenyl)-propionic acid ethyl ester], the IC50 stood at 0.013 µM.

Turning to `CC(C)(C)c1cc(NC(=O)Nc2cccc3ccccc23)n(-c2ccc(CO)cc2)n1` [Example 358, 1-{3-t-butyl-1-[4-(hydroxymethyl)phenyl]-1H-pyrazol-5-yl}-3-(naphthalen-1-yl)urea], the IC50 worked out at 0.1 µM. Take `CN1CCN(C(=O)NCc2cccc(-n3nc(C(C)(C)C)cc3NC(=O)Nc3ccc(Cl)cc3)c2)CC1` [Example 390, 1-{3-t-butyl-1-(3-[(1-methylpiperazine-4-carboxamido)methyl]phenyl}-1H-pyrazol-5-yl)-3-(4-chlorophenyl)urea]: the “% @ concentration, uM” value came to 24% (@ 0.1 uM) and 63% (@ 1 uM). For the molecule `COc1cccc(NC(=O)Nc2cc(C(C)(C)C)nn2-c2cccc(CO)c2)c1` [Example 306, 1-{3-t-butyl-1-[3-(hydroxymethyl)phenyl]-1H-pyrazol-5-yl}-3-(3-methoxyphenyl)urea], the IC50 was determined as 0.058 µM. `CC(C)(O)c1cccc(-n2nc(C(F)(F)F)cc2NC(=O)Nc2cccc3ccccc23)c1` [Example 337]: the “% @ concentration, uM” value (@ 10 uM) came out at 8% @ 10. With `Cc1cc(NC(=O)Nc2ccc(Cl)cc2)n(-c2ccc(CO)cc2)n1` [Example 345, 1-(4-chlorophenyl)-3-{1-[4-(hydroxymethyl)phenyl]-3-methyl-1H-pyrazol-5-yl}urea], the IC50 turned out to be 0.27 µM. As for `CC(C)(C)c1cc(NC(=O)Nc2cccc3ccccc23)n(-c2cccc(CNC(=O)N3CCCC3)c2)n1` [Example 383, 1-(3-t-butyl-1-{3-[(pyrrolidine-1-carboxamido)methyl]phenyl}-1H-pyrazol-5-yl)-3-(naphthalen-1-yl)urea], the IC50 was found to be 0.1 µM.
